This note sets out measurements from publication PMC12310023 (PLOS Neglected Tropical Diseases, 2025).

Read-outs that look alike come from different tables or passages of the source. Bounds are passed on as bounds.

Data set [1] is described as follows: HCT-8 host cell count (Calibr). The following applies: human.
The test system of data set [2] is C. parvum Zambriski Laboratory isolate. The experiment in a line: Calibr high-content imaging Cryptosporidium panel. Format: cell-based, Cryptosporidium parvum. The following applies: Cryptosporidium parvum; for EC50: read-out: Wild C. parvum Spot Count EC50; for EC90: read-out: Wild C. parvum Spot Count EC90.
For a further data set, the system named is C. hominis TU502 isolate. Kind of data set: Calibr high-content imaging Cryptosporidium panel. Format: cell-based, Cryptosporidium hominis. As to conditions: Cryptosporidium hominis.
The subject of data set [3] is C. parvum Bunch Grass Farms isolate. Kind of data set: Calibr high-content imaging Cryptosporidium panel. As to conditions: Cryptosporidium parvum. Format: cell-based, Cryptosporidium parvum.
A further data set has as its system NLuc C. parvum (Calibr). The experiment in a line: Calibr panel, UA Nanoluc C. parvum count. Format: cell-based. The following applies: Cryptosporidium parvum; for EC50: read-out: UA Nanoluc C. parvum Count EC50; for EC90: read-out: UA Nanoluc C. parvum Count EC90.
Data set [4] has as its system C. parvum U AZ Laboratory isolate. The experiment in a line: microbe, parasite or virus in culture. Format: cell-based, Cryptosporidium parvum. As to conditions: Cryptosporidium parvum; for EC50: Calibr Crypto Panel 2, 2018-06-18, read-out: Sterling Lab C. parvum Spot Count EC50; for EC90: Calibr Crypto Panel 2, read-out: Sterling Lab C. parvum Spot Count EC90.
Another data set is described as follows: 72H HEK293T Cytotoxicity. As to conditions: human, HEK293T cells. Format: cell-based.
The target in the next data set is T1, PPARУ (Homo sapiens, UniProt P37231).
T1 construct: Cerep (Eurofins, France)
T1 sequence (P37231 1-505): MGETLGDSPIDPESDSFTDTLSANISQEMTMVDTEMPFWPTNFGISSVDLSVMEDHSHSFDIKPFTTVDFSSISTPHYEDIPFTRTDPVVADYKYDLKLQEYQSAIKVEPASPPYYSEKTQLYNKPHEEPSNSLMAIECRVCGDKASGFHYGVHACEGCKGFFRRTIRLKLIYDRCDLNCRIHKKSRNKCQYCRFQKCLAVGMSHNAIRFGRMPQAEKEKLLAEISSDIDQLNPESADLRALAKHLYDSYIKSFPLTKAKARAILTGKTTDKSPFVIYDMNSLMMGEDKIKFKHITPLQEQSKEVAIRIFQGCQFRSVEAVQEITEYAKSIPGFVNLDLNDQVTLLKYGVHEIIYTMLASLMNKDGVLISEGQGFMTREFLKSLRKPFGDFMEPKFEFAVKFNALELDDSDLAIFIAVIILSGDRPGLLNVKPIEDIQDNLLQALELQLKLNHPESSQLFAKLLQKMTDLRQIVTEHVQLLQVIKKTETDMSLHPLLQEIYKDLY
Kind of data set: Cerep cellular and nuclear receptor functional assay. Format: cell-based. The following applies: read-out: IC50, antagonist effect.

The target of another data set is T2, 5-HT2B (Homo sapiens, UniProt P41595).
T2 construct: Cerep (Eurofins, France)
T2 sequence (P41595 whole entry): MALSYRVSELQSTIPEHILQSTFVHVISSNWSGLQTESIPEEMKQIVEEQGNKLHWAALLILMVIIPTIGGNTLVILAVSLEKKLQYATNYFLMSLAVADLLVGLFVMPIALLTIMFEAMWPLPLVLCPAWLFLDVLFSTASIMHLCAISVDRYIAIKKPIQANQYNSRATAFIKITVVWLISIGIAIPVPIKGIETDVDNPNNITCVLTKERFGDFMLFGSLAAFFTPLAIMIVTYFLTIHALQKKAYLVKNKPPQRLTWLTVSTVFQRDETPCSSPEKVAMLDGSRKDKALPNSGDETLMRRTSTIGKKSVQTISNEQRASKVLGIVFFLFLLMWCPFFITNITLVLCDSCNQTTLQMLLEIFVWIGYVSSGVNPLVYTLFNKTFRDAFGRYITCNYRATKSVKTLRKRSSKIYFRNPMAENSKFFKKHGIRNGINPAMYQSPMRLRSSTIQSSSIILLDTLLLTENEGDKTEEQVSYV
The data set is described as above. Format: cell-based. The following applies: read-out: IC50, antagonist effect.

Where [5] appears, read: CC50, HCT-8 cells infected with BGF Cp, Replicate 1.
The mark [6] stands for this setting: CC50, HCT-8 cells infected with BGF Cp, Replicate 2.
Setting [7] is: CC50, HCT-8 cells infected with Ch, Replicate 1.
[8] abbreviates: CC50, HCT-8 cells infected with Ch, Replicate 2.
Where [9] appears, read: CC50, HCT-8 cells infected with UA Nluc Cp, Replicate 1.
The mark [10] stands for this setting: CC50, HCT-8 cells infected with UA Nluc Cp, Replicate 2.
Setting [11] is: HCT-8 Cell Count CC50, host cells infected with Sterling oocysts.
Setting [12] is: read-out: C. hominis Spot Count EC50, Calibr Crypto Panel 2, 2018-07-02.
Where [13] appears, read: read-out: C. hominis Spot Count EC90, Calibr Crypto Panel 2.
The mark [14] stands for this setting: read-out: TU502 C. hominis Count EC50, Replicate 1.
Where [15] appears, read: read-out: TU502 C. hominis Count EC50, Replicate 2.
Where [16] appears, read: read-out: TU502 C. hominis Count EC90, Replicate 1.
The mark [17] stands for this setting: read-out: TU502 C. hominis Count EC90, Replicate 2.
The mark [18] stands for this setting: read-out: Bunch Grass Farm C. parvum Count EC50, Crypto Panel 3 Replicate 1.
Where [19] appears, read: read-out: Bunch Grass Farm C. parvum Count EC50, Crypto Panel 3 Replicate 2.
Where [20] appears, read: read-out: Bunch Grass Farm C. parvum Count EC90, Replicate 1.
Where [21] appears, read: read-out: Bunch Grass Farm C. parvum Count EC90, Replicate 2.
Setting [22] is: read-out: Bunch Grass Farm C. parvum Spot Count EC50, Calibr Crypto Panel 2.
[23] abbreviates: read-out: Bunch Grass Farm C. parvum Spot Count EC90, Calibr Crypto Panel 2.
The mark [24] stands for this setting: Replicate 1, read-out: TU502 C. hominis Count EC50.
[25] abbreviates: Replicate 1, read-out: TU502 C. hominis Count EC90.
Setting [26] is: Replicate 2, read-out: TU502 C. hominis Count EC50.
The mark [27] stands for this setting: Replicate 2, read-out: TU502 C. hominis Count EC90.
Where [28] appears, read: Crypto Panel 3 Replicate 1, read-out: Bunch Grass Farm C. parvum Count EC50.
[29] abbreviates: Crypto Panel 3 Replicate 2, read-out: Bunch Grass Farm C. parvum Count EC50.
Setting [30] is: Replicate 1, read-out: Bunch Grass Farm C. parvum Count EC90.
The mark [31] stands for this setting: Replicate 2, read-out: Bunch Grass Farm C. parvum Count EC90.

In general, CC50 refers to the concentration at which the toxic effect on the cells reaches its halfway point. A high value points to better tolerance by the cells. One may read the EC50 as the concentration needed to bring the measured effect to its halfway point. For orientation: EC90 means the point of the concentration-response curve where the effect stands at 90%. `O=c1[nH]c(=O)n([C@H]2C[C@H](O)[C@@H](CO)O2)cc1F` [5-fluoro-2'-deoxyuridine]: the CC50 is 192 nM in data set [1] (setting [5]); 80.3 nM in data set [1] (setting [6]); 71.8 nM in data set [1] (setting [7]); 9.05 nM in data set [1] (setting [8]); 196 nM in data set [1] (setting [9]); 43 nM in data set [1] (setting [10]). Further, in data set [1] (setting [11]), the 50% cytotoxic concentration (CC50) was 79 nM. Further, the concentration giving a half-maximal response (EC50) was determined as 5.29 nM in [2]; 33.5 nM in the data set with C. hominis TU502 isolate (setting [12]); 51.1 nM with C. hominis TU502 isolate (setting [14]); 29.2 nM with C. hominis TU502 isolate (setting [15]); 39.7 nM in [3] (setting [18]); 29 nM in data set [3] (setting [19]). In addition, the EC50 was determined as 3.1 nM in data set [3] (setting [22]), 43.1 nM in the data set with NLuc C. parvum (Calibr) (Replicate 1), 33.1 nM in the data set with NLuc C. parvum (Calibr) (Replicate 2) and 3.67 nM in data set [4]. For the same molecule, the EC90 came out at 80.4 nM in data set [2]; 679 nM in the data set on C. hominis TU502 isolate (setting [13]); 196 nM with C. hominis TU502 isolate (setting [16]); 222 nM in the data set on C. hominis TU502 isolate (setting [17]); 68.8 nM in [3] (setting [20]); 86 nM in data set [3] (setting [21]). The concentration for an effect of 90% (EC90) in data set [3] (setting [23]) stood at 11.7 nM; with NLuc C. parvum (Calibr) (Replicate 1), 158 nM; with NLuc C. parvum (Calibr) (Replicate 2), 117 nM; in [4], 9.97 nM. Moreover, the CC50 at 72 h in “72H HEK293T Cytotoxicity” came to 7.23 nM.

With `CC(C)/N=c1\cc2n(-c3ccc(Cl)cc3)c3ccccc3nc-2cc1Nc1ccc(Cl)cc1` [Clofazimine], the cytotoxic concentration (CC50) in [1] (setting [5]), in [1] (setting [6]), in data set [1] (setting [7]), in data set [1] (setting [8]), in [1] (setting [9]) and in [1] (setting [10]) was greater than 25000 nM throughout. The EC50 in the data set with C. hominis TU502 isolate (setting [24]) stood at 517 nM; in the data set with C. hominis TU502 isolate (setting [26]), 707 nM; in data set [3] (setting [28]), 119 nM; in data set [3] (setting [29]) it was 678 nM; with NLuc C. parvum (Calibr) (Replicate 1) it was 23.6 nM; with NLuc C. parvum (Calibr) (Replicate 2), 67 nM. The EC90 in the data set with C. hominis TU502 isolate (setting [25]) was found to be 1190 nM; in the data set on C. hominis TU502 isolate (setting [27]), 1520 nM; in data set [3] (setting [30]), 2710 nM; in [3] (setting [31]), 1170 nM; in the data set with NLuc C. parvum (Calibr) (Replicate 1), 392 nM; with NLuc C. parvum (Calibr) (Replicate 2), 1370 nM.

As a reminder, the IC50 is the concentration that inhibits the measured activity by half. Regarding `O=C(Nc1ccccc1)c1cc([N+](=O)[O-])ccc1Cl` [GW 9662, reference compound], on PPARУ, the half-maximal inhibitory concentration (IC50) is 34 nM.

Turning to `CC(=O)Oc1ccccc1C(=O)Nc1ncc([N+](=O)[O-])s1` [Nitazoxanide], the CC50 in data set [1] (setting [5]), in data set [1] (setting [6]), in data set [1] (setting [7]), in data set [1] (setting [8]), in data set [1] (setting [9]) and in data set [1] (setting [10]) was greater than 30000 nM throughout. Also, in [1] (setting [11]), the 50% cytotoxic concentration (CC50) worked out at 19900 nM. The concentration for a half-maximal effect (EC50) in data set [2] (Calibr Crypto Panel 2) amounted to 9040 nM; with C. hominis TU502 isolate (Calibr Crypto Panel 2, 2018-07-02, read-out: C. hominis Spot Count EC50), 5820 nM; in the data set on C. hominis TU502 isolate (setting [24]), 8220 nM; with C. hominis TU502 isolate (setting [26]), 6030 nM; in [3] (setting [28]), 11300 nM; in [3] (setting [29]) it was 6050 nM. Moreover, the EC50 in data set [3] (Calibr Crypto Panel 2, read-out: Bunch Grass Farm C. parvum Spot Count EC50) is 6990 nM; with NLuc C. parvum (Calibr) (Replicate 1) it was greater than 30000 nM; in the data set on NLuc C. parvum (Calibr) (Replicate 2) it was 4760 nM; in data set [4], 3940 nM. Further, the concentration for an effect of 90% (EC90) is 15700 nM in [2] (Calibr Crypto Panel 2); 278000 nM with C. hominis TU502 isolate (Calibr Crypto Panel 2, read-out: C. hominis Spot Count EC90); 14200 nM in the data set with C. hominis TU502 isolate (setting [25]); 12300 nM in the data set with C. hominis TU502 isolate (setting [27]); 19600 nM in data set [3] (setting [30]); 12000 nM in data set [3] (setting [31]). The EC90 in data set [3] (Calibr Crypto Panel 2, read-out: Bunch Grass Farm C. parvum Spot Count EC90) was 16800 nM; with NLuc C. parvum (Calibr) (Replicate 1), greater than 30000 nM; in the data set with NLuc C. parvum (Calibr) (Replicate 2), 25000 nM; in [4], 20800 nM. Further, in the data set “72H HEK293T Cytotoxicity”, half-maximal cytotoxicity (CC50 at 72 h) was put at 40300 nM.

Turning to `COc1ccc(C[C@H](N)C(=O)N[C@H]2[C@@H](O)[C@H](n3cnc4c(N(C)C)ncnc43)O[C@@H]2CO)cc1` [Puromycin], the CC50 in data set [1] (setting [5]) is 3090 nM; in [1] (setting [6]), 2810 nM; in data set [1] (setting [7]), 2660 nM; in data set [1] (setting [8]), 2810 nM; in [1] (setting [9]) it was 2970 nM; in [1] (setting [10]) it was 2370 nM. In data set [1] (setting [11]), this molecule yielded a cytotoxic concentration (CC50) of 3100 nM. The EC50 in data set [2] came out at 274 nM; in the data set on C. hominis TU502 isolate (setting [12]), 1840 nM; in the data set on C. hominis TU502 isolate (setting [14]), 730 nM; with C. hominis TU502 isolate (setting [15]), 504 nM; in data set [3] (setting [18]), 403 nM; in data set [3] (setting [19]), 274 nM. The EC50 in data set [3] (setting [22]) is 177 nM; in the data set on NLuc C. parvum (Calibr) (Replicate 1), 337 nM; in the data set on NLuc C. parvum (Calibr) (Replicate 2), 233 nM; in data set [4], 165 nM. In addition, the EC90 in [2] stood at 1920 nM; in the data set on C. hominis TU502 isolate (setting [13]), 3570 nM; in the data set on C. hominis TU502 isolate (setting [16]), 1900 nM; with C. hominis TU502 isolate (setting [17]), 1500 nM; in data set [3] (setting [20]) it was 1140 nM; in data set [3] (setting [21]), 847 nM. Further, the EC90 in data set [3] (setting [23]) came to 398 nM; in the data set on NLuc C. parvum (Calibr) (Replicate 1) it was 1020 nM; in the data set on NLuc C. parvum (Calibr) (Replicate 2), 1320 nM; in [4] it was 406 nM. For the same molecule, in the data set “72H HEK293T Cytotoxicity”, the midpoint of cytotoxicity, the CC50 at 72 h, lay at 319 nM.

Take `Cn1ccc2cc3c(cc21)CCN3C(=O)Nc1cccnc1` [SB 206553, reference compound]: the IC50 on 5-HT2B stood at 21 nM.
